Reference: the OligoGym collection
After the bases stand the sugars from the 5' end (letter, count) and the backbone: PS all phosphorothioate, else s phosphorothioate and o phosphodiester by linkage. Methylation of C is not given here. e = 2'-O-(2-methoxyethyl) (MOE); k = constrained ethyl (cEt); d = 2'-deoxy (DNA); m = 2'-O-methyl

Biological target: HSD17B13
Details: ASO, HepaRG

GTTAGCAGCTAAAATC (sugars k3 d10 k3, PS)
target mRNA inhibition (1 µM): 45%

GTTAGCTAAGGGAGAG (sugars k3 d10 k3, PS)
target mRNA inhibition (1 µM): 18%

GTTATAAGTTTCATGT (sugars k3 d10 k3, PS)
target mRNA inhibition (1 µM): 21%

GTTATTCTCTTGACAA (sugars k3 d9 k3 e1, PS)
target mRNA inhibition (1 µM): 35%

GTTCAAATTGGATGCA (sugars k3 d10 k3, PS)
target mRNA inhibition (1 µM): 68%

GTTCATTCGAATTTCT (sugars k3 d10 k3, PS)
target mRNA inhibition (0.02 µM): 0% | target mRNA inhibition (0.078 µM): 19% | target mRNA inhibition (0.313 µM): 60% | target mRNA inhibition (1 µM): 76% | target mRNA inhibition (1.25 µM): 87% | target mRNA inhibition (5 µM): 88%

GTTCTTAATTACATTC (sugars k3 d10 k3, PS)
target mRNA inhibition (1 µM): 64%

GTTGACTAATGCAAGA (sugars k3 d10 k3, PS)
target mRNA inhibition (1 µM): 59%

GTTGATAAAATAGGGT (sugars k3 d10 k3, PS)
target mRNA inhibition (1 µM): 42%

GTTGATATTCTGTGGC (sugars k3 d1 m1 d8 k3, PS)
target mRNA inhibition (1 µM): 68%

GTTGATATTCTGTGGC (sugars kkdddddddddkekek, PS)
target mRNA inhibition (1 µM): 69%

GTTGATATTTCCATCT (sugars k3 d10 k3, PS)
target mRNA inhibition (1 µM): 55%

GTTGGAAGATGTATAC (sugars k3 d10 k3, PS)
target mRNA inhibition (1 µM): 53%

GTTTAGATTGCATAAG (sugars k3 d10 k3, PS)
target mRNA inhibition (1 µM): 46%

GTTTATCATGTGCCAC (sugars k3 d10 k3, PS)
target mRNA inhibition (0.02 µM): 0% | target mRNA inhibition (0.078 µM): 21% | target mRNA inhibition (0.313 µM): 44% | target mRNA inhibition (1 µM): 83% | target mRNA inhibition (1.25 µM): 76% | target mRNA inhibition (5 µM): 94%

GTTTATGTAAGCACAG (sugars k3 d10 k3, PS)
target mRNA inhibition (1 µM): 67%

GTTTCAAAAAGGCCCA (sugars k3 d10 k3, PS)
target mRNA inhibition (1 µM): 39%

GTTTCTTATGTAATAG (sugars k3 d1 m1 d8 k3, PS)
target mRNA inhibition (1 µM): 25%

GTTTTTAAGAGGCATG (sugars k3 d9 k3 e1, PS)
target mRNA inhibition (0.02 µM): 12% | target mRNA inhibition (0.078 µM): 17% | target mRNA inhibition (0.313 µM): 41% | target mRNA inhibition (1 µM): 78% | target mRNA inhibition (1.25 µM): 64% | target mRNA inhibition (5 µM): 82%

GTTTTTATTGGGCCCA (sugars k3 d10 k3, PS)
target mRNA inhibition (1 µM): 67%

TAAAATAGGGTGCAGT (sugars k3 d10 k3, PS)
target mRNA inhibition (1 µM): 58%

TAAAATATGTCCAGGT (sugars k3 d10 k3, PS)
target mRNA inhibition (1 µM): 75%

TAAACATCTCTGGGAC (sugars kkdddddddddkekek, PS)
target mRNA inhibition (1 µM): 39%

TAAACTGTATGCCTCT (sugars k3 d10 k3, PS)
target mRNA inhibition (1 µM): 49%

TAAATCCAAATCACTC (sugars k3 d10 k3, PS)
target mRNA inhibition (1 µM): 39%

TAACCATAGGACATGG (sugars k3 d10 k3, PS)
target mRNA inhibition (1 µM): 70%

TAACGGTGATCAAATG (sugars k3 d10 k3, PS)
target mRNA inhibition (1 µM): 17%

TAACTAACCTGACACA (sugars k3 d10 k3, PS)
target mRNA inhibition (1 µM): 57%

TAACTTCATAGTGGAC (sugars k3 d10 k3, PS)
target mRNA inhibition (1 µM): 76%

TAAGAGAAGGTGCACA (sugars k3 d10 k3, PS)
target mRNA inhibition (1 µM): 12%

TAAGAGATGAGTAGGC (sugars k3 d10 k3, PS)
target mRNA inhibition (1 µM): 46%

TAAGAGGCATGAAAGG (sugars k3 d9 k3 e1, PS)
target mRNA inhibition (1 µM): 36%

TAAGAGGCATGAAAGG (sugars k3 d10 k3, PS)
target mRNA inhibition (1 µM): 52%

TAAGATACCCAGGTTG (sugars k3 d10 k3, PS)
target mRNA inhibition (1 µM): 39%

TAAGCTGAGAGTTCTA (sugars k3 d10 k3, PS)
target mRNA inhibition (1 µM): 64%

TAAGGTAAACTAAAGT (sugars k3 d10 k3, PS)
target mRNA inhibition (1 µM): 9%

TAAGTAGATGGTAAGT (sugars k3 d10 k3, PS)
target mRNA inhibition (0.02 µM): 5% | target mRNA inhibition (0.078 µM): 10% | target mRNA inhibition (0.313 µM): 34% | target mRNA inhibition (1 µM): 74% | target mRNA inhibition (1.25 µM): 72% | target mRNA inhibition (5 µM): 85%

TAAGTTATTATCCCCA (sugars k3 d10 k3, PS)
target mRNA inhibition (1 µM): 70%

TAATACGACTTCCTTC (sugars k3 d10 k3, PS)
target mRNA inhibition (1 µM): 32%

TAATAGCCAGTACAGT (sugars k3 d9 k3 e1, PS)
target mRNA inhibition (1 µM): 64%

TAATCTTGAGGCAGGA (sugars k3 d10 k3, PS)
target mRNA inhibition (1 µM): 17%

TACACCACACTAATGA (sugars k3 d10 k3, PS)
target mRNA inhibition (1 µM): 26%

TACAGACTAAGGGACC (sugars k3 d10 k3, PS)
target mRNA inhibition (1 µM): 68%

TACAGATTGGAATGCT (sugars kkdddddddddkekek, PS)
target mRNA inhibition (1 µM): 35%

TACAGTTCCTTTTCCT (sugars k3 d10 k3, PS)
target mRNA inhibition (1 µM): 68%

TACATCACCCACTTCT (sugars k3 d10 k3, PS)
target mRNA inhibition (1 µM): 37%

TACATTACAGCCTTAG (sugars k3 d10 k3, PS)
target mRNA inhibition (0.02 µM): 0% | target mRNA inhibition (0.078 µM): 2% | target mRNA inhibition (0.313 µM): 15% | target mRNA inhibition (1 µM): 75% | target mRNA inhibition (1.25 µM): 71% | target mRNA inhibition (5 µM): 85%
